According to patent US7482346B2, “Derivatives of alkylpiperazine and alkylhomopiperazine-carboxylates, preparation method thereof and use of same as fatty acid amido hydrolase enzyme inhibitors” (Sanofi-Aventis, priority 2004, dated 2009):
Structures can show the parent of a compound that is named as a salt.

target: T1, FAAH (fatty acid amide hydrolase) (Mus musculus, UniProt O08914); experiment: radio-enzymatic assay of FAAH inhibition (hydrolysis of anandamide [1-3H ethanolamine]); format: biochemical; settings: mouse brain membrane homogenates; anandamide [1-3H ethanolamine] 10 μM; 15 minutes at 25° C.; read-out: IC50 (concentration inhibiting by 50% the control enzyme activity of FAAH)
T1 construct: Membrane homogenates are prepared at the time of use by homogenizing the tissues in a Polytron; from tissue; host or cells: mouse brain (minus the cerebellum), membrane homogenate
T1 sequence (O08914 1-579): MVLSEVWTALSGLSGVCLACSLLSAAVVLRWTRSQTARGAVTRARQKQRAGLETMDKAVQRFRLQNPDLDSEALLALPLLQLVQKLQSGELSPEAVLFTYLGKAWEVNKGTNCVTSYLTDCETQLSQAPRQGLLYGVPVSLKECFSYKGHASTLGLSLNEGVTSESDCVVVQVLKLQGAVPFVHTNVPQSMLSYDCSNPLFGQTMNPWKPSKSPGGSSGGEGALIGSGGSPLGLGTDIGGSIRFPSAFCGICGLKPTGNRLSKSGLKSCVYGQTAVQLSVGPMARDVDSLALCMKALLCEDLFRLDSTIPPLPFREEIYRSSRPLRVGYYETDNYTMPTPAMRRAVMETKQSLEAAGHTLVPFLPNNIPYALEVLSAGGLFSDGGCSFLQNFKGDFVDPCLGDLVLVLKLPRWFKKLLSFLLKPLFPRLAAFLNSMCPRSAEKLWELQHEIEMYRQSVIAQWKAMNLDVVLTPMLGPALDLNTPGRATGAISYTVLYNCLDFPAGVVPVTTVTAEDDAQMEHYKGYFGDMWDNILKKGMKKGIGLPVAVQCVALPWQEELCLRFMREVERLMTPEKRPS
Description: The compounds of the invention were subjected to pharmacological tests permitting determination of their inhibitory effect on the enzyme FAAH (fatty acid amide hydrolase).
Accordingly, mouse brains (minus the cerebellum) are removed and stored at −80° C. Membrane homogenates are prepared at the time of use by homogenizing the tissues in a Polytron in a 10 mM Tris-HCl buffer (pH 8) containing 150 mM NaCl and 1 mM EDTA. The enzyme reaction is subsequently conducted in 70 μl of buffer containing bovine serum albumin without fatty acids (1 mg/ml). In succession, the test compounds, at various concentrations, anandamide [1-^3H ethanolamine] (specific activity: 15-20 Ci/mmol) diluted to 10 μM with cold anandamide, and the membrane preparation (400 μg of frozen tissue per assay) are added. After 15 minutes at 25° C. the enzyme reaction is terminated by adding 140 μl of chloroform/methanol (2:1). The mixture is stirred for 10 minutes and then centrifuged for 15 minutes at 3500 g. An aliquot (30 μl) of the aqueous phase containing the 1-^3H ethanolamine is counted by liquid scintillation.

SMILES	IC50 [nM]
CNC(=O)COC(=O)N1CCN(CCCc2ccc(-c3ccccc3)cc2)CC1 [Compound 49, 2-(methylamino)-2-oxoethyl 4-(3-biphenyl-4-ylpropyl)piperazine-1-carboxylate]	32
CNC(=O)COC(=O)N1CCN(CCCc2cccc(-c3ccccc3)c2)CC1 [Compound 48, 2-(methylamino)-2-oxoethyl 4-(3-biphenyl-3-ylpropyl)piperazine-1-carboxylate]	50
CNC(=O)COC(=O)N1CCN(CCc2cccc3ccccc23)CC1 [Compound 21, 2-(methylamino)-2-oxoethyl 4-[2-(1-naphthyl)ethyl]piperazine-1-carboxylate]	72

system: male OFI mice; experiment: analgesia test: abdominal stretches induced by PBQ (phenylbenzoquinone); format: in vivo, mouse; settings: dose of 10 mg/kg at 120 minutes, PBQ 2 mg/kg i.p.
Description: The in vivo activity of the compounds of the invention was evaluated in an analgesia test.
Accordingly, intraperitoneal (i.p.) administration of PBQ (phenylbenzoquinone, 2 mg/kg in a 0.9% sodium chloride solution containing 5% of ethanol) to male OFI mice weighing 25 to 30 g causes abdominal stretches, on average 30 twists or contractions during the period from 5 to 15 minutes after injection. The test compounds are administered orally (p.o.) or intraperitoneally (i.p.) in suspension in Tween 80 at 0.5%, 60 minutes or 120 minutes before the administration of PBQ. […] For example, compounds 49 and 69 of the table reduce by 43% and 47% respectively, the number of stretches induced by PBQ, at a dose of 10 mg/kg at 120 minutes.

SMILES	reduction of the number of stretches induced by PBQ [%]
CNC(=O)COC(=O)N1CCN(CCCc2cc(-c3ccc(Cl)cc3)no2)CC1 [Compound 69, 2-(methylamino)-2-oxoethyl 4-{3-[3-(4-chlorophenyl)isoxazol-5-yl]propyl}piperazine-1-carboxylate]	47
CNC(=O)COC(=O)N1CCN(CCCc2ccc(-c3ccccc3)cc2)CC1 [Compound 49, 2-(methylamino)-2-oxoethyl 4-(3-biphenyl-4-ylpropyl)piperazine-1-carboxylate]	43

system: not given; experiment: not given; settings: not given

SMILES	melting point
CNC(=O)COC(=O)N1CCN(CCc2cc(-c3ccc(Cl)cc3)no2)CC1 [Compound 29, 2-(methylamino)-2-oxoethyl 4-{2-[3-(4-chlorophenyl)isoxazol-5-yl]ethyl}piperazine-1-carboxylate]	130 to 132 °C
CNC(=O)COC(=O)N1CCN(C(C)(C)CCc2cccc(-c3ccccc3)c2)CC1 (as salt: HCl) [Compound 50, 2-(methylamino)-2-oxoethyl 4-(3-biphenyl-3-yl-1,1-dimethylpropyl)piperazine-1-carboxylate hydrochloride]	212 to 216 °C (dec.)
CNC(=O)COC(=O)N1CCN(CCc2ccc3ccccc3c2)CC1 [Compound 25, 2-(methylamino)-2-oxoethyl 4-(2-naphthalen-2-ylethyl)piperazine-1-carboxylate]	133 to 135 °C
NC(=O)COC(=O)N1CCCN(CC#Cc2cccc(C(F)(F)F)c2)CC1 [Compound 99, 2-amino-2-oxoethyl 4-{3-[3-(trifluoromethyl)phenyl]prop-2-yn-1-yl}-1,4-diazepane-1-carboxylate]	102 to 104 °C
CNC(=O)COC(=O)N1CCN(C/C=C/c2ccccc2)CC1 [Compound 85, 2-(methylamino)-2-oxoethyl trans-4-(3-phenylprop-2-en-1-yl)piperazine-1-carboxylate]	109 to 111 °C
CNC(=O)COC(=O)N1CCN(CCCc2cccc(-c3cccc(Cl)c3)c2)CC1 [Compound 52, 2-(methylamino)-2-oxoethyl 4-[3-(3′-chlorobiphenyl-3-yl)propyl]piperazine-1-carboxylate]	82 to 85 °C
CNC(=O)COC(=O)N1CCN(CCOc2ccc(Cl)cc2)CC1 [Compound 130, 2-(methylamino)-2-oxoethyl 4-{2-[(4-chlorophenyl)oxy]ethyl}piperazine-1-carboxylate]	159 to 161 °C
